Laboratory results taken from article PMC12350525, “Investigation of the inhibitory effects of the telomere-targeted compounds on glutathione S-transferase P1” (Naunyn-Schmiedeberg's Archives of Pharmacology, 2025).
Read-outs that look alike come from different tables or passages of the source.

Legend:
[1] = target: T1, recombinant human GSTP1 (Homo sapiens, UniProt P09211); experiment: GSTP1 enzyme inhibition assay (GSH-CDNB conjugation, spectrophotometric); type: biochemical
T1 construct: made in house; host or cells: E. coli XL-1 Blue
T1 sequence (P09211 whole entry): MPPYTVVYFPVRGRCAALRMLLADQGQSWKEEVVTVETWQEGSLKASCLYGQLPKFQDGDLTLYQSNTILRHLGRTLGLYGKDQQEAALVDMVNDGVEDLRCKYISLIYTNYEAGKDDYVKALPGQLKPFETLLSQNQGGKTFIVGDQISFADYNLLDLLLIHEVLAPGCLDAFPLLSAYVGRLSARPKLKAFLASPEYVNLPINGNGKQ
Description: Glutathione S-transferase P1 (GSTP1) plays a significant role in cancer progression and chemotherapy resistance, with its overexpression diminishing chemotherapeutic efficacy across various tumor types. […] Enzyme inhibition assays with recombinant human GSTP1, kinetic analysis, molecular docking, and molecular dynamic simulations were employed. Enzymatic assays were performed in 0.1 M phosphate buffer (pH 6.5) at 30 °C, containing 1 mM EDTA, 1 mM GSH, and 1 mM CDNB. […] Graphical abstract
The human GST P1-1 gene from a K562 erythroleukemia cDNA library (GSTP1*A allele) was cloned into the pKXHP1 plasmid. This plasmid was transformed into E. coli XL-1 Blue cells via heat shock, grown on agar plates, and a single colony was cultured overnight at 37 °C in 2YT medium. […]
The enzyme activity of GSTP1 was measured using a spectrophotometric assay based on the conjugation of glutathione (GSH) to 1-chloro-2,4-dinitrobenzene (CDNB). […] The progress of the reaction was monitored by measuring the absorbance change at 340 nm, indicating the formation of the GSH-CDNB conjugate. Absorbance readings were recorded over 5 min using a SpectraMax M2 microplate reader. Percentage inhibition at each concentration was calculated, and IC₅₀ values were determined using GraphPad Prism 8.4. […]

[2] = target: T2, GSTP1-1 (Homo sapiens, UniProt P09211); experiment: Kinetic inhibition studies with GSTP1 (Lineweaver-Burk, varied GSH or CDNB); type: biochemical
T2 construct: made in house; host or cells: E. coli XL-1 Blue
T2 sequence (P09211 whole entry): as above
Description: To assess the inhibition type and calculate the inhibition constant (Ki) values for the compounds, kinetic inhibition studies were performed with GSTP1.
By varying the concentration of one substrate while keeping the other at near-saturation, we assessed how each inhibitor interacted with GSTP1 under various substrate conditions. Lineweaver-Burk plots were used to analyze these interactions, allowing for the determination of the inhibition type (e.g., competitive, non-competitive, or mixed) and the Ki values for each compound. These kinetic parameters were calculated using GraphPad Prism, providing a comprehensive understanding of how the inhibitors influence GSTP1 enzymatic activity.
These plots were generated by varying the concentrations of substrates GSH and CDNB with different inhibitor concentrations.

[3] = test system: GSTP1; conditions: covalent binding to tyrosine residues on GSTP1; ref Louie et al. 2016; cited from earlier work
[4] = CDNB as varied substrate, GSH near-saturating, read-out: Ki CDNB
[5] = GSH as varied substrate, CDNB near-saturating, read-out: Ki GSH

SMILES	IC50 ([1]; as restated in the discussion) [nM]	Type of inhibition CDNB ([2]; CDNB as varied substrate)	Ki [2, 4] [nM]	Type of inhibition GSH ([2]; GSH as varied substrate)	Ki [2, 5] [nM]	Type of inhibition GSH ([2]; GSH as varied substrate, listed as dimer form)	IC50 [3] [nM]	IC50 ([1]; 0.1 M phosphate buffer pH 6.5, 30 °C, 1 mM EDTA, 1 mM GSH, 1 mM CDNB, 2.5% DMSO) [nM]
Nc1nc(SSc2nc(N)nc3c2ncn3C2CC(O)C(CO)O2)c2ncn(C3CC(O)C(CO)O3)c2n1 (stereo not drawn) [6-thio-2′-dG-Dimer]	339	Competitive	723	Mixed	972	mixed-type		
C#CCCCN(c1nc(Cl)nc(Cl)n1)[C@H](CC(C)C)C(=O)OC [LAS17]							500	
Nc1nc2c(ncn2[C@H]2C[C@H](O)[C@@H](CO)O2)c(=S)[nH]1 [Compound 6-thio-dG, 6-thio-2′-deoxyguanosine]		mixed-type	11400	Noncompetitive	12300			15100
